Test system: HBV D genotype
Assay: Antiviral activity in HBV-infected liver-humanized chimeric hFRG mouse model, plasma HBV DNA by qPCR
Type: in vivo
Settings: hFRG mice
Method: To investigate the therapeutic efficacy of afuco-A14 GA LS against established HBV infection, the efficacy of afuco-A14 GA LS administered alone and in combination with entecavir, was evaluated in a liver-humanized chimeric hFRG (Fah^-/- Rag2^-/- /IL2rg^-/-) mouse model. Entecavir is a hepatitis B virus reverse transcriptase inhibitor that treats hepatitis B by inhibiting viral replication. The disadvantage of entecavir is the rebound of viral replication upon discontinuation of treatment.
A control group (saline), an afuco-A14 GA LS monotherapy group (10 mg/kg), an entecavir (ETV) monotherapy group (ETV, 0.1 mg/kg), and a combination therapy group of afuco-A14 GA LS (10 mg/kg) and entecavir (0.1 mg/kg) were set up in the experiment, respectively. Mice were administered (afuco-A14 GALS was administered subcutaneously and ETV was administered orally) starting on day 28 (D28) post HBV infection (HBV D genotype, 2 × 10^9 GE/mouse). Thereafter, afuco-A14 GA LS was administered subcutaneously once a week (D35, D42, D49, D56, D63, and D70), while ETV was administered once a day until D70. The observation period continued after discontinuation until D91.
Plasma from experimental mice was collected by venous blood sampling, and then qPCR was used to quantitatively detect the level of HBV DNA in the plasma of the mice. […]

## C=C1[C@H](CO)[C@@H](O)C[C@@H]1n1cnc2c(=O)[nH]c(N)nc21 [ETV, entecavir]
21 days post-discontinuation, afuco-A14 GA LS 10 mg/kg s.c., ETV 0.1 mg/kg oral
  reduction of mean viral titre at the end of the study (D91) compared to the starting point of treatment (D28): 7.15 fold
Treatment D28 to D70, afuco-A14 GA LS 10 mg/kg s.c. once a week, ETV 0.1 mg/kg oral once a day, compared to control group (saline)
  decrease of viral DNA levels at the final dose (D70): ~436 fold

Reference: patent EP4541815A1, “ANTIBODY AGAINST HEPATITIS B VIRUS, PREPARATION THEREOF AND USE THEREOF” (priority 2022, dated 2023)
